Results reported in ChEMBL document CHEMBL5143511, “Positioning of an unprecedented 1,5-oxaza spiroquinone scaffold into SMYD2 inhibitors in epigenetic space” (Eur J Med Chem, 2022).

How the values were obtained:
[1] = biological target: T1, N-lysine methyltransferase SMYD2 (Homo sapiens, UniProt Q9NRG4); assay: Inhibition of SMYD2 (unknown origin) assessed as residual activity at 10 uM using 3H-SAM as substrate incubated for 1 hr by filter binding method relative to control
[2] = biological target: T1, N-lysine methyltransferase SMYD2; assay: Inhibition of SMYD2 (unknown origin) using 3H-SAM as substrate incubated for 1 hr by filter binding method
Ca-Ski = assay: cells; assay type: functional, cell-based; conditions: Homo sapiens, 72 h
Description: Antiproliferative activity against human Ca-Ski cells assessed as inhibition of cell growth incubated for 72 hrs by CellTiter-Glo luminescent cell viability assay

MDA-MB-231 = assay: Antiproliferative activity against human MDA-MB-231 cells assessed as inhibition of cell growth incubated for 72 hrs by CellTiter-Glo luminescent cell viability assay; assay type: functional, cell-based; conditions: MDA-MB-231, 72 h
HEK293 = assay: Induction of apoptosis in HEK293 cells assessed as increase in cleaved PARP level incubated for 24 hrs by immunoblot analysis; assay type: toxicity, cell-based; conditions: human, hek293, 24 h, DDE = dose-dependent effect, dose 0.0195-10 µM
[3] = biological target: Glycogen synthase kinase-3 beta (Homo sapiens, UniProt P49841); assay: Inhibition of GSK3beta (unknown origin)
Glycogen synthase kinase-3 beta, sequence (P49841 whole entry): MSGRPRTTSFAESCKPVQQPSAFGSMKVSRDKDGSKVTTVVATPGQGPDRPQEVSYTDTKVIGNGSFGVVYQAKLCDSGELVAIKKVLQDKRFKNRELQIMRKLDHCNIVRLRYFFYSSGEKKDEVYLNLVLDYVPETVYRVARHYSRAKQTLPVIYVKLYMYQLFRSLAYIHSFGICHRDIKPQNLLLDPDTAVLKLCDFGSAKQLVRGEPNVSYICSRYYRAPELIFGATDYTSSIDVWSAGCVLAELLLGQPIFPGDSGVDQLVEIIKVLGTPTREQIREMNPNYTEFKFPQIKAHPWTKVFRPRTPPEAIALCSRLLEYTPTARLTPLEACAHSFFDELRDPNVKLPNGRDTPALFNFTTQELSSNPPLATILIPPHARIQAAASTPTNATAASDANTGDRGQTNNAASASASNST

T1 sequence (Q9NRG4 whole entry): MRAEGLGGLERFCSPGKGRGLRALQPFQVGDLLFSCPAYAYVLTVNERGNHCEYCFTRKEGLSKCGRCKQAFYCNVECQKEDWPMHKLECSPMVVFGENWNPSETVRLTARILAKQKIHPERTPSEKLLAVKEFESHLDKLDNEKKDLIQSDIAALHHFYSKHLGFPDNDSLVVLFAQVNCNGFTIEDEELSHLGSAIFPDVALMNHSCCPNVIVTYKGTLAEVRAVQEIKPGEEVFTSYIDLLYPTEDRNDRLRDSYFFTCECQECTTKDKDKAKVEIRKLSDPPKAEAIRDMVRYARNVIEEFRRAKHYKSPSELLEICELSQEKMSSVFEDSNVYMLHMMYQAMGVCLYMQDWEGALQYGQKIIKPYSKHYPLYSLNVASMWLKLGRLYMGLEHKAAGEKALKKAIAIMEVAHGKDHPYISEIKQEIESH

SMILES	Activity [1] [%]	IC50 [2] [µM]	also measured
CC(C)N1C(=O)C(Cc2cccc(Br)c2)COC12C=CC(=O)C=C2 (stereo not given)	42.5	> 20	
CC(C)N1C(=O)C(Cc2ccc([N+](=O)[O-])cc2)COC12C=CC(=O)C=C2 (stereo not given)	66.7	> 20	
CN1C(=O)C(CCO[Si](C)(C)C(C)(C)C)COC12C=CC(=O)C=C2 (stereo not given)		> 30	
CN[C@@H]1C[C@H]2O[C@@](C)([C@@H]1OC)n1c3ccccc3c3c4c(c5c6ccccc6n2c5c31)C(=O)NC4 [STAUROSPORINE]			IC50 (MDA-MB-231): 0.000858 µM
CC(C)N1C(=O)C(Cc2c(F)cccc2C(F)(F)F)COC12C=CC(=O)C=C2 (stereo not given)	47.2	> 20	
CC(C)N1C(=O)C(Cc2cc(C(F)(F)F)cc(C(F)(F)F)c2)COC12C=CC(=O)C=C2 (stereo not given)	6.72	2.39	IC50 (Ca-Ski): 0.733 µM; Activity (HEK293): Dde; IC50 (MDA-MB-231): 1.03 µM
C=CCC1COC2(C=CC(=O)C=C2)N(C(C)C)C1=O (stereo not given)	101	> 20	
O=C1COc2c([C@@H](O)CNCCN(C(=O)CCNCCc3ccc(Cl)c(Cl)c3)C3CCCCC3)ccc(O)c2N1		0.003	

The next lines start with results.

Activity [1] [%]	IC50 [2] [µM]	SMILES	also measured
50.4	> 20	CC(C)N1C(=O)C(Cc2ccccc2CS(=O)(=O)c2ccccc2)COC12C=CC(=O)C=C2 (stereo not given)	
	> 30	N#Cc1cccc(-n2cc(CC3COC4(C=CC(=O)C=C4)N(c4ccccc4)C3=O)nn2)c1 (stereo not given)	
19.9	3.06	CN1C(=O)C(C/C=N/n2c3ccccc3c3ccccc32)COC12C=CC(=O)C=C2 (stereo not given)	IC50 (Ca-Ski): 0.927 µM; IC50 (MDA-MB-231): 1.08 µM
45.1	> 20	CN1C(=O)C(CCNc2ccccc2)COC12C=CC(=O)C=C2 (stereo not given)	
44.6	> 20	CN1C(=O)C(CCNc2ccc(C(=O)c3ccccc3)cc2)COC12C=CC(=O)C=C2 (stereo not given)	
	5.8	CN1C(=O)C(CCO[Si](c2ccccc2)(c2ccccc2)C(C)(C)C)COC12C=CC(=NNc1ccccc1)C=C2 (stereo not given)	
36	> 20	CC(C)N1C(=O)C(Cc2ccc(F)cc2)COC12C=CC(=O)C=C2 (stereo not given)	
	> 30	CN1C(=O)C(CCO)COC12C=CC(=O)C=C2 (stereo not given)	
16.1	2.31	CN1C(=O)C(CCNc2ccc(-c3cccs3)cc2)COC12C=CC(=O)C=C2 (stereo not given)	
	3.06	O=C1C=CC2(C=C1)OCC(Cc1cn(-c3cccc(Cc4ccccc4)c3)nn1)C(=O)N2c1ccccc1 (stereo not given)	IC50 [3]: 1.53 µM
